The nature of data set [1]: Compound cytotoxicity, XTT-based colorimetric assay. The format is cell-based. The note with it: human. The gist of the method:
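Cells seeded as for the antiviral assay but left uninfected (MT2). Compound exposure continued to day 4. XTT reagent added and colour read. CC50 calculated.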
On the technique in general: Tetrazolium assays rely on reduction of a dye to a coloured formazan, in cell work by metabolically active cells.

Data set [2] concerns recombinant NL4-3 virus (nef section replaced with Renilla luciferase gene) in MT-2 cells. As to the kind of experiment: HIV cell culture assay (antiviral activity, luciferase readout). The format is cell-based. The settings on record: Renilla, NL43, MT-2 cells infected for 4-5 days with recombinant NL4-3 Renilla luciferase virus. The method, boiled down: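 The reporter virus was produced by transfecting 293T cells with the NL4-3 nef/Renilla luciferase proviral clone. MT-2 cells were infected for 4–5 days with serial compound dilutions present. Luciferase was read with a live-cell substrate, and EC50 came from the exponential median-effect equation.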

The mark [3] stands for this setting: uninfected MT2 cells, day 4, XTT, read-out: CC50.

As usually defined, the CC50 is the concentration that lowers cell viability or growth by half. The EC50 is the concentration that produces a half-maximal response.

Like-named read-outs stand apart in the source and are kept apart here.

For `Cc1cc(C2(F)CCC(F)(F)CC2)nc2nc([C@H](Cc3cc(F)cc(F)c3)NC(=O)Cn3nc(C(F)F)c4c3C(F)(F)[C@@H]3C[C@H]43)n(-c3ccc(Cl)c4c(NS(C)(=O)=O)nn(CCN5C[C@H](F)C[C@H](F)C5)c34)c(=O)c12` (atropisomer, axis not shown; (P)) [Example 11, N-[(1S)-1-[(3P)-3-(4-chloro-1-{2-[(3R,5S)-3,5-difluoropiperidin-1-yl]ethyl}-3-methanesulfonamido-1H-indazol-7-yl)-5-methyl-4-oxo-7-(1,4,4-trifluorocyclohexyl)-3H,4H-pyrido[2,3-d]pyrimidin-2-yl]-2-(3,5-difluorophenyl)ethyl]-2-[(2S,4R)-9-(difluoromethyl)-5,5-difluoro-7,8-diazatricyclo[4.3.0.0^2,4]nona-1(6),8-dien-7-yl]acetamide], the CC50 at 4 days in data set [1] (setting [3]) was over 20000 nM. In data set [2], the EC50 is 0.009 nM.

Turning to `Cc1cc(C2(CF)CCC(F)(F)CC2)nc2nc([C@H](Cc3cc(F)cc(F)c3)NC(=O)Cn3nc(C4CC4)c4c3C[C@@H]3C[C@H]43)n(-c3ccc(Cl)c4c(NS(C)(=O)=O)nn(CCN5C[C@@H](C)O[C@@H](C)C5)c34)c(=O)c12` (atropisomer, axis not shown; (P)) [Example 557, N-[(1S)-1-[(3P)-3-(4-chloro-1-{2-[(2R,6S)-2,6-dimethylmorpholin-4-yl]ethyl}-3-methanesulfonamido-1H-indazol-7-yl)-7-[4,4-difluoro-1-(fluoromethyl)cyclohexyl]-5-methyl-4-oxo-3H,4H-pyrido[2,3-d]pyrimidin-2-yl]-2-(3,5-difluorophenyl)ethyl]-2-[(2S,4S)-9-cyclopropyl-7,8-diazatricyclo[4.3.0.0^2,^4]nona-1(6),8-dien-7-yl]acetamide], the 50% cytotoxic concentration (CC50) at 4 days in data set [1] (setting [3]) is over 20 nM. In data set [2], the half-maximal effective concentration (EC50) turned out to be 0.007 nM.

For the compound `Cc1cc(C2(F)CCC(F)(F)CC2)nc2nc([C@H](Cc3cc(F)cc(F)c3)NC(=O)Cn3nc([C@H]4CC4(F)F)c4c3C[C@H]3C[C@@H]43)n(-c3ccc(Cl)c4c(NS(C)(=O)=O)nn(CCN5C[C@@H](C)O[C@@H](C)C5)c34)c(=O)c12` (atropisomer, axis not shown; (P)) [Example 598, N-[(1S)-1-[(3P)-3-(4-chloro-1-{2-[(2R,6S)-2,6-dimethylmorpholin-4-yl]ethyl}-3-methanesulfonamido-1H-indazol-7-yl)-5-methyl-4-oxo-7-(1,4,4-trifluorocyclohexyl)-3H,4H-pyrido[2,3-d]pyrimidin-2-yl]-2-(3,5-difluorophenyl)ethyl]-2-[(2R,4R)-9-[(1R)-2,2-difluorocyclopropyl]-7,8-diazatricyclo[4.3.0.0^2,^4]nona-1(6),8-dien-7-yl]acetamide], the CC50 at 4 days in data set [1] (setting [3]) was over 20 nM. Besides, in data set [2], the EC50 was found to be 0.009 nM.

`Cc1cc(C2CCC(F)(F)CC2)nc2nc([C@H](Cc3cc(F)cc(F)c3)NC(=O)Cn3nc(C4CC4)c4c3C[C@@H]3C[C@H]43)n(-c3ccc(Cl)c4c(NS(C)(=O)=O)nn(CCNC5COC5)c34)c(=O)c12` (atropisomer, axis not shown; (P)) [Example 279, N-[(1S)-1-[(3P)-3-(4-chloro-3-methanesulfonamido-1-{2-[(oxetan-3-yl)amino]ethyl}-1H-indazol-7-yl)-7-(4,4-difluorocyclohexyl)-5-methyl-4-oxo-3H,4H-pyrido[2,3-d]pyrimidin-2-yl]-2-(3,5-difluorophenyl)ethyl]-2-[(2S,4S)-9-cyclopropyl-7,8-diazatricyclo[4.3.0.0^2,^4]nona-1(6),8-dien-7-yl]acetamide]: in data set [1] (setting [3]), the CC50 at 4 days is over 50 nM. Also, the 50% effective concentration (EC50) in data set [2] was 0.036 nM.

For the compound `Cc1cc(C2(F)CCC(F)(F)CC2)nc2nc([C@H](Cc3cc(F)cc(F)c3)NC(=O)Cn3nc(C4CC4)c4c3C[C@@H]3C[C@H]43)n(-c3ccc(Cl)c4c(NS(C)(=O)=O)nn(CCN5[C@@H]6CC[C@H]5COC6)c34)c(=O)c12` (atropisomer, axis not shown; (P)) [Example 593, N-[(1S)-1-[(3P)-3-(4-chloro-3-methanesulfonamido-1-{2-[(1R,5S)-3-oxa-8-azabicyclo[3.2.1]octan-8-yl]ethyl}-1H-indazol-7-yl)-5-methyl-4-oxo-7-(1,4,4-trifluorocyclohexyl)-3H,4H-pyrido[2,3-d]pyrimidin-2-yl]-2-(3,5-difluorophenyl)ethyl]-2-[(2S,4S)-9-cyclopropyl-7,8-diazatricyclo[4.3.0.0^2,^4]nona-1(6),8-dien-7-yl]acetamide], the CC50 at 4 days in data set [1] was over 20 nM. Further, the EC50 in data set [2] was found to be 0.017 nM.

Regarding `CNCc1cc(C2CCC(F)(F)CC2)nc2nc([C@H](Cc3cc(F)cc(F)c3)NC(=O)Cn3nc(C(F)F)c4c3C(F)(F)[C@@H]3C[C@H]43)n(-c3ccc(Cl)c4c(NS(C)(=O)=O)nn(CCCOC)c34)c(=O)c12` (atropisomer, axis not shown; (P)) [Example 472, N-[(1S)-1-[(3P)-3-[4-chloro-3-methanesulfonamido-1-(3-methoxypropyl)-1H-indazol-7-yl]-7-(4,4-difluorocyclohexyl)-5-[(methylamino)methyl]-4-oxo-3H,4H-pyrido[2,3-d]pyrimidin-2-yl]-2-(3,5-difluorophenyl)ethyl]-2-[(2S,4R)-9-(difluoromethyl)-5,5-difluoro-7,8-diazatricyclo[4.3.0.0^2,^4]nona-1(6),8-dien-7-yl]acetamide], the CC50 at 4 days in data set [1] (setting [3]) was over 20 nM. Besides, in data set [2], the 50% effective concentration (EC50) amounted to 0.087 nM.

Consider `CS(=O)(=O)Nc1nn(CCN2C[C@H]3CC[C@@H](C2)O3)c2c(-n3c([C@H](Cc4cc(F)cc(F)c4)NC(=O)Cn4nc(C5CC5)c5c4C[C@@H]4C[C@H]54)nc4nc(C5CCC(F)(F)CC5)cc(C5CC5)c4c3=O)ccc(Cl)c12` (atropisomer, axis not shown; (P)) [Example 325, N-[(1S)-1-[(3P)-3-(4-chloro-3-methanesulfonamido-1-{2-[(1R,5S)-8-oxa-3-azabicyclo[3.2.1]octan-3-yl]ethyl}-1H-indazol-7-yl)-5-cyclopropyl-7-(4,4-difluorocyclohexyl)-4-oxo-3H,4H-pyrido[2,3-d]pyrimidin-2-yl]-2-(3,5-difluorophenyl)ethyl]-2-[(2S,4S)-9-cyclopropyl-7,8-diazatricyclo[4.3.0.0^2,^4]nona-1(6),8-dien-7-yl]acetamide], for which the CC50 at 4 days in data set [1] (setting [3]) is over 50 nM. In addition, in data set [2], the 50% effective concentration (EC50) was 0.009 nM.

Regarding `Cc1cc(C2(F)CCC(F)(F)CC2)nc2nc([C@H](Cc3cc(F)cc(F)c3)NC(=O)Cn3nc(C4CC4)c4c3C[C@@H]3C[C@H]43)n(-c3ccc(Cl)c4c(NS(C)(=O)=O)nn([C@H](C)CN5C[C@@H](C)O[C@@H](C)C5)c34)c(=O)c12` (relative stereo) [Example 730, N-[(1S)-1-[(3P)-3-{4-chloro-1-[(2R)-1-[(2R,6S)-2,6-dimethylmorpholin-4-yl]propan-2-yl]-3-methanesulfonamido-1H-indazol-7-yl}-5-methyl-4-oxo-7-(1,4,4-trifluorocyclohexyl)-3H,4H-pyrido[2,3-d]pyrimidin-2-yl]-2-(3,5-difluorophenyl)ethyl]-2-[(2R*,4R*)-9-cyclopropyl-7,8-diazatricyclo[4.3.0.0^2,^4]nona-1(6),8-dien-7-yl]acetamide], the 50% cytotoxic concentration (CC50) at 4 days in data set [1] (setting [3]) is over 20 nM. For the same compound, the EC50 in data set [2] stood at 0.032 nM.

`COCCCn1nc(NS(C)(=O)=O)c2c(Cl)ccc(-n3c([C@H](Cc4cc(F)cc(F)c4)NC(=O)Cn4nc(C(F)F)c5c4C(F)(F)[C@@H]4C[C@H]54)nc4nc(C5CCC(F)(F)CC5)cc(CN5CC(OC)C5)c4c3=O)c21` (atropisomer, axis not shown; (P)) [Example 604, N-[(1S)-1-[(3P)-3-[4-chloro-3-methanesulfonamido-1-(3-methoxypropyl)-1H-indazol-7-yl]-7-(4,4-difluorocyclohexyl)-5-[(3-methoxyazetidin-1-yl)methyl]-4-oxo-3H,4H-pyrido[2,3-d]pyrimidin-2-yl]-2-(3,5-difluorophenyl)ethyl]-2-[(2S,4R)-9-(difluoromethyl)-5,5-difluoro-7,8-diazatricyclo[4.3.0.0^2,^4]nona-1(6),8-dien-7-yl]acetamide]: the half-maximal cytotoxic concentration (CC50) at 4 days in data set [1] (setting [3]) was over 20 nM. Further, in data set [2], the EC50 came out at 0.011 nM.

As to `Cc1cc(C2(F)CCC(F)(F)CC2)nc2nc([C@H](Cc3cc(F)cc(F)c3)NC(=O)Cn3nc(C(F)F)c4c3C(F)(F)[C@@H]3C[C@H]43)n(-c3ccc(Cl)c4c(NS(C)(=O)=O)nn(CCc5cccnc5)c34)c(=O)c12` (atropisomer, axis not shown; (P)) [Example 740, N-[(1S)-1-[(3P)-3-{4-chloro-3-methanesulfonamido-1-[2-(pyridin-3-yl)ethyl]-1H-indazol-7-yl}-5-methyl-4-oxo-7-(1,4,4-trifluorocyclohexyl)-3H,4H-pyrido[2,3-d]pyrimidin-2-yl]-2-(3,5-difluorophenyl)ethyl]-2-[(2S,4R)-9-(difluoromethyl)-5,5-difluoro-7,8-diazatricyclo[4.3.0.0^2,^4]nona-1(6),8-dien-7-yl]acetamide], in data set [1] (setting [3]), the 50% cytotoxic concentration (CC50) at 4 days is over 20 nM. Besides, in data set [2], the EC50 came out at 0.021 nM.

As to `COCCNc1cc(C2CCC(F)(F)CC2)nc2nc([C@H](Cc3cc(F)cc(F)c3)NC(=O)Cn3nc(C(F)F)c4c3C(F)(F)[C@@H]3C[C@H]43)n(-c3ccc(Cl)c4c(NS(C)(=O)=O)nn(CCN5C[C@@H](F)[C@@H](F)C5)c34)c(=O)c12` (atropisomer, axis not shown; (P)) [Example 417, N-[(1S)-1-[(3P)-3-(4-chloro-1-{2-[(3R,4S)-3,4-difluoropyrrolidin-1-yl]ethyl}-3-methanesulfonamido-1H-indazol-7-yl)-7-(4,4-difluorocyclohexyl)-5-[(2-methoxyethyl)amino]-4-oxo-3H,4H-pyrido[2,3-d]pyrimidin-2-yl]-2-(3,5-difluorophenyl)ethyl]-2-[(2S,4R)-9-(difluoromethyl)-5,5-difluoro-7,8-diazatricyclo[4.3.0.0^2,^4]nona-1(6),8-dien-7-yl]acetamide], in data set [1] (setting [3]), the 50% cytotoxic concentration (CC50) at 4 days was over 20 nM. In addition, the EC50 in data set [2] is 0.007 nM.
